Our source for the inhibition values is patent publication US20090253669A1, “Substituted Sulfonamide Compounds” (GRUENENTHAL GmbH, priority 2008, published 2009).

The target in experiment [1] is T1, B1R receptor of the rat (rB1R) (Rattus norvegicus, UniProt P97583).
T1 construct: host or cells: CHO K1 cells
T1 sequence (P97583 1-337): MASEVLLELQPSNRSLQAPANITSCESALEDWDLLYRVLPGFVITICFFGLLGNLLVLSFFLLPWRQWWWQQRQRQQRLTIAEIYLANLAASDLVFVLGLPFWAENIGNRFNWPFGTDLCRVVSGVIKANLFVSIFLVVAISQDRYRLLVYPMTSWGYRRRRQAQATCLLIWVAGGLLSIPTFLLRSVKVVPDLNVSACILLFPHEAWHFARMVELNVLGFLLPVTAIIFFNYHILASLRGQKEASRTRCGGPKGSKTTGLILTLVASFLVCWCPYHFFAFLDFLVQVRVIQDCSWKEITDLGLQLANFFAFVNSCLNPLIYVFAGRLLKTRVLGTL
Description: FLIPR Ca2+ assay on rB1R-transfected CHO K1 cells, antagonistic action. The class given is cell-based.

In experiment [2] the target is T2, human B1R receptor (hB1R) (Homo sapiens, UniProt P46663).
T2 construct: host or cells: CHO K1 cells
T2 sequence (P46663 1-353): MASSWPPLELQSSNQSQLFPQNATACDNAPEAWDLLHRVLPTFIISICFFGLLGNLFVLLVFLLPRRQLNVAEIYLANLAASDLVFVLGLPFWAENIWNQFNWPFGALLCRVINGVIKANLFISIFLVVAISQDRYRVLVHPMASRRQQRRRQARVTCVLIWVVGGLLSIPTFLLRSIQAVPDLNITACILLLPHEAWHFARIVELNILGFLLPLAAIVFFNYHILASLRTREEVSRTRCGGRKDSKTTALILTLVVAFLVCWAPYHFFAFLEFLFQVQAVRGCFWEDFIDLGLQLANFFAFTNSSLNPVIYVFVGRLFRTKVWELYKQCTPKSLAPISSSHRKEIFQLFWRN
Description: FLIPR Ca2+ assay on hB1R-transfected CHO K1 cells, antagonistic action. Type of experiment: cell-based.

[3] abbreviates: CHO-K1, 10 μM test substance, agonist Des-Arg9-bradykinin 100 nM, % of maximum achievable inhibition, read-out: rB1R [10 μM] % inhibition.
The mark [4] stands for this setting: CHO-K1, 10 μM test substance, agonist Lys-Des-Arg9-bradykinin 0.5 nM, % of maximum achievable inhibition, read-out: hB1R [10 μM] % inhibition.

Where two headings read alike, the source gives them in different places.

Regarding `COc1cc(C)c(S(=O)(=O)N2CCCC2COCC(=O)NC2CCC(c3ccccc3)(N3CCOCC3)CC2)c(C)c1` (stereo not drawn) [Compound 160, 2-((1-(4-methoxy-2,6-dimethylphenylsulfonyl)pyrrolidin-2-yl)methoxy)-N-(4-morpholino-4-phenylcyclohexyl)acetamide], the inhibition at 10 µM in experiment [1] (setting [3]) came to 98%; in experiment [2] (setting [4]), 93%.
On the same counts, the results for `COc1cc(C)c(S(=O)(=O)N(C)CCOCC(=O)N2CCC(c3ccccc3)(N(C)C)CC2)c(C)c1` [Compound 54, N-(2-(2-(4-(dimethylamino)-4-phenylpiperidin-1-yl)-2-oxoethoxy)ethyl)-4-methoxy-N,2,6-trimethylbenzenesulfonamide] are 100% and 103%.
On the same counts, the results for `Cc1cc(S(=O)(=O)N2CCCCC2CCC(=O)N(C)CC2CCC(CCc3ccccc3)(N3CCCC3)CC2)c(C)cc1Cl` (stereo not drawn) [Compound 141, 3-(1-(4-chloro-2,5-dimethylphenylsulfonyl)piperidin-2-yl)-N-methyl-N-((4-phenethyl-4-(pyrrolidin-1-yl)cyclohexyl)methyl)propanamide] are 20% and 104%.
On the same counts, the results for `CN(CCOCC(=O)NC1CCC(Cc2ccccc2)(N2CCCC2)CC1)S(=O)(=O)c1ccc(Cl)cc1Cl` (stereo not drawn) [Compound 193, N-(4-benzyl-4-(pyrrolidin-1-yl)cyclohexyl)-2-(2-(2,4-dichloro-N-methylphenylsulfonamido)ethoxy)acetamide] are 34% and 93%.
As to `COc1cc(C)c(S(=O)(=O)N2CCCCC2COCC(=O)NC2CCC(c3ccccc3)(N3CCOCC3)CC2)c(C)c1` (stereo not drawn) [Compound 158, 2-((1-(4-methoxy-2,6-dimethylphenylsulfonyl)piperidin-2-yl)methoxy)-N-(4-morpholino-4-phenylcyclohexyl)acetamide], the inhibition at 10 µM in experiment [1] (setting [3]) is 99%; in experiment [2] (setting [4]) it was 87%.
For `COc1cc(C)c(S(=O)(=O)N(C)CCOCC(=O)NCC2CCC(Cc3ccccc3)(N3CCOCC3)CC2)c(C)c1` (stereo not drawn) [Compound 188, N-((4-benzyl-4-morpholinocyclohexyl)methyl)-2-(2-(4-methoxy-N,2,6-trimethylphenylsulfonamido)ethoxy)acetamide], the inhibition at 10 µM in experiment [1] (setting [3]) turned out to be 63%; in experiment [2] (setting [4]), 95%.
On the same counts, the results for `CN(CCC1CCC(Cc2ccccc2)(N(C)C)CC1)C(=O)COCC1CCc2ccccc2N1S(=O)(=O)c1ccc(Cl)c(Cl)c1` (stereo not drawn) [Compound 61, N-(2-(4-benzyl-4-(dimethylamino)cyclohexyl)ethyl)-2-((1-(3,4-dichlorophenylsulfonyl)-1,2,3,4-tetrahydroquinolin-2-yl)methoxy)-N-methylacetamide] are 100% and 49%.
On the same counts, the results for `COc1cc(C)c(S(=O)(=O)N2CCC(OCC(=O)NC3CCC(c4ccccc4)(N4CCCCC4)CC3)C2)c(C)c1` (stereo not drawn) [Compound 27, 2-(1-(4-methoxy-2,6-dimethylphenylsulfonyl)pyrrolidin-3-yloxy)-N-(4-phenyl-4-(piperidin-1-yl)cyclohexyl)acetamide] are 51% and 69%.
On the same counts, the results for `COc1cc(C)c(S(=O)(=O)N2CCCC(COCC(=O)NC3CCC(Cc4ccccc4)(N4CCCC4)CC3)C2)c(C)c1` (stereo not drawn) [Compound 180, N-(4-benzyl-4-(pyrrolidin-1-yl)cyclohexyl)-2-((1-(4-methoxy-2,6-dimethylphenylsulfonyl)piperidin-3-yl)methoxy)acetamide] are 73% and 71%.
On to `CN(CCC1CCC(CCc2ccccc2)(N(C)C)CC1)C(=O)CC(NS(=O)(=O)c1ccc2ccccc2c1)c1ccccc1` (stereo not drawn) [Compound 102, N-(2-(4-(dimethylamino)-4-phenethylcyclohexyl)ethyl)-N-methyl-3-(naphthalene-2-sulfonamido)-3-phenylpropanamide], for which the inhibition at 10 µM in experiment [1] (setting [3]) came out at 85%; in experiment [2] (setting [4]), 97%.
On the same counts, the results for `CN1CCN(C2(Cc3ccccc3)CCN(C(=O)CC(NS(=O)(=O)c3ccc4ccccc4c3)c3ccccc3)CC2)CC1` (stereo not drawn) [Compound 118, N-(3-(4-benzyl-4-(4-methylpiperazin-1-yl)piperidin-1-yl)-3-oxo-1-phenylpropyl)naphthalene-2-sulfonamide] are 69% and 101%.
On the same counts, the results for `Cc1cc(S(=O)(=O)N2CCCCC2CCC(=O)N2CCC(CCc3ccccc3)(N3CCN(C)CC3)CC2)c(C)cc1Cl` (stereo not drawn) [Compound 122, 3-(1-(4-chloro-2,5-dimethylphenylsulfonyl)piperidin-2-yl)-1-(4-(4-methylpiperazin-1-yl)-4-phenethylpiperidin-1-yl)propan-1-one] are 66% and 105%.
On the same counts, the results for `COc1cc(C)c(S(=O)(=O)N(C)CCOCC(=O)NC2CCC(Cc3ccccc3)(N3CCCC3)CC2)c(C)c1` (stereo not drawn) [Compound 170, N-(4-benzyl-4-(pyrrolidin-1-yl)cyclohexyl)-2-(2-(4-methoxy-N,2,6-trimethylphenylsulfonamido)ethoxy)acetamide] are 84% and 104%.
With `Cc1cccc(Cl)c1S(=O)(=O)N1c2ccccc2OCC1COCC(=O)N1CCC(c2cccc(F)c2)(N2CCN(C)CC2)CC1` (stereo not drawn) [Compound 222, 2-((4-(2-Chloro-6-methylphenylsulfonyl)-3,4-dihydro-2H-benzo[b][1,4]oxazin-3-yl)methoxy)-1-(4-(3-fluorophenyl)-4-(4-methylpiperazin-1-yl)piperidin-1-yl)ethanone], the inhibition at 10 µM in experiment [1] (setting [3]) and in experiment [2] (setting [4]) was 97% each time.
For the compound `Cc1ccccc1CC1(N(C)C)CCC(NC(=O)CC2c3ccccc3CCN2S(=O)(=O)c2ccc(Cl)c(Cl)c2)CC1` (stereo not drawn) [Compound 12, 2-(2-(3,4-dichlorophenylsulfonyl)-1,2,3,4-tetrahydroisoquinolin-1-yl)-N-(4-(dimethylamino)-4-(2-methylbenzyl)cyclohexyl)acetamide], the inhibition at 10 µM in experiment [1] (setting [3]) was 88%; in experiment [2] (setting [4]), 77%.
Turning to `COc1cc(C)c(S(=O)(=O)N2CCCCC2COCC(=O)N2CCC(Cc3ccccc3)(N(C)C)CC2)c(C)c1` (stereo not drawn) [Compound 65, 1-(4-benzyl-4-(dimethylamino)piperidin-1-yl)-2-((1-(4-methoxy-2,6-dimethylphenylsulfonyl)piperidin-2-yl)methoxy)ethanone], the inhibition at 10 µM turned out to be 100% in experiment [1] (setting [3]) and 104% in experiment [2] (setting [4]).
In the case of `COc1ccc(S(=O)(=O)N2CCCCC2CCOCC(=O)NC2CCC(c3ccccc3)(N(C)C)CC2)cc1` (stereo not drawn) [Compound 19, N-(4-(dimethylamino)-4-phenylcyclohexyl)-2-(2-(1-(4-methoxyphenylsulfonyl)piperidin-2-yl)ethoxy)acetamide], the figures for the inhibition at 10 µM in experiment [1] (setting [3]) and in experiment [2] (setting [4]) were 73% and 51%, respectively.
On the same counts, the results for `COc1cc(C)c(S(=O)(=O)N2CCC(OCC(=O)N(C)CC3CCC(CCc4ccccc4)(N4CCN(C)CC4)CC3)C2)c(C)c1` (stereo not drawn) [Compound 177, 2-(1-(4-methoxy-2,6-dimethylphenylsulfonyl)pyrrolidin-3-yloxy)-N-methyl-N-((4-(4-methylpiperazin-1-yl)-4-phenethylcyclohexyl)methyl)acetamide] are 76% and 103%.
On the same counts, the results for `COc1cc(C)c(S(=O)(=O)N2CCCCC2COCC(=O)N(C)CCC2CCC(CCc3ccccc3)(N(C)C)CC2)c(C)c1` (stereo not drawn) [Compound 73, N-(2-(4-(dimethylamino)-4-phenethylcyclohexyl)ethyl)-2-((1-(4-methoxy-2,6-dimethylphenylsulfonyl)piperidin-2-yl)methoxy)-N-methylacetamide] are 99% and 104%.
In the case of `CN1CCN(C2(c3cccc(F)c3)CCN(C(=O)CCCC3CCCCN3S(=O)(=O)c3ccccc3C(F)(F)F)CC2)CC1` (stereo not drawn) [Compound 213, 1-(4-(3-Fluorophenyl)-4-(4-methylpiperazin-1-yl)piperidin-1-yl)-4-(1-(2-(trifluoromethyl)phenylsulfonyl)piperidin-2-yl)butan-1-one], the inhibition at 10 µM in experiment [1] (CHO-K1, read-out: rB1R [10 μM] % inhibition) came out at 100%; in experiment [2] (CHO-K1, read-out: hB1R [10 μM] % inhibition), 100%.
With `COc1cc(C)c(S(=O)(=O)N2CCCC(OCC(=O)NC3CCC(c4ccccc4)(N4CCCC4)CC3)C2)c(C)c1` (stereo not drawn) [Compound 176, 2-(1-(4-methoxy-2,6-dimethylphenylsulfonyl)piperidin-3-yloxy)-N-(4-phenyl-4-(pyrrolidin-1-yl)cyclohexyl)acetamide], the inhibition at 10 µM in experiment [1] (setting [3]) turned out to be 77%; in experiment [2] (setting [4]), 89%.
